Reference: patent US5576419A, “Mild solid-phase synthesis of aligned branched triple-helical peptides” (Regents of the University of Minnesota, priority 1995, dated 1996)

Experiments:
[1] = CD thermal transition (triple-helix melting), molar ellipticity at 225 nm; type: physicochemical; conditions: [θ] at 225 nm; for Tm (triple-helical melt): 15-85 °C, 1-5% aqueous HOAc, pH 2.4
Protocol: Edman degradation sequence analysis was performed on an Applied Biosystems 477A Protein Sequencer/120A Analyzer for both solid-phase and "embedded" (non-covalent) sequencing as described by C. G. Fields et al., Anal. Biochem. 203, 245 (1992) and C. G. Fields et al., Peptide Res. 6, 39 (1993), which are incorporated herein by reference. Fulvene-piperidine concentrations (301 nm) and scanning UV spectra (200-320 nm) were determined with a BECKMAN DU-70 Spectrophotometer. Amino acid analyses were performed on a BECKMAN 6300 Analyzer with a sulfated polystyrene cation-exchange column (0.4 cm×25 cm). Peptides were hydrolyzed with 6N aqueous HCl at 110° C. for 18-48 h. Electrospray mass spectrometric (ES-MS) methods have been described by C. G. Fields et al., Peptide Res. 6, 39 (1993), which is incorporated herein by reference. Fast atom bombardment (FAB) MS was performed on a VG 7070E-HF with a glycerol matrix and laser desorption time-of-flight (LD-TOF) MS with both a breadboard and prototype matrix-assisted TOF mass spectrometer from Millipore Corporation (Milford, Mass.) with a sinapinic acid matrix [saturated solution of 10 mg/mL sinapinic acid dissolved in acetonitrile-H2 O (1:3) containing 0.1% TFA]. THPs were ^3 H-labeled by reductive methylation [N. Jentoft et al., J. Biol. Chem. 254, 4359 (1979)] with NaCNBH3 and [^3 H]formaldehyde, desalted over a Sephadex G-50 column (50×1.5 cm) in PBS, pH 7.4, and analyzed by size-exclusion chromatography (SEC). CD spectroscopy was performed on a Jasco 710 spectropolarimeter using a 100 or 200 μL, 0.1 mm cell. The THP concentrations (determined spectrophotometrically) in 1-5% aqueous HOAc, pH 2.4 were [THP-1]=0.16 mM, [THP-2]=0.084 mM, [THP-3]=0.068 mM, and [THP-4]=0.015 mM. Spectra were recorded by accumulating 5 scans at 0.5 nm intervals (response of 1 sec). Thermal transitions were examined by measuring the molar ellipticity ([θ]) at 225 nm from 15°-85° C.

K1735M4 tumor cell [2] = assay: Melanoma cell adhesion to peptide-coated Immulon plates; type: cell-based, mouse; conditions: for EC50: coated peptide 0.1-300 μM, cells adhered 1 h at 37 °C, one mole = three peptide chains, read-out: Half maximal melanoma cell adhesion (peptide concentration)
Protocol: (§1) K1735M4 tumor cell adhesion and spreading assays were as described previously [M. K. Chelberg et al., J. Cell Biol. 111, 261 (1990)] with minor alterations. Peptides were dissolved in PBS and adsorbed directly onto 96-well polystyrene Immulon 1 plates (Dynatech Laboratories Inc., Chantlily, Va.) overnight at 37° C. Nonspecific binding sites were blocked with 5 mg/mL bovine serum albumin in adhesion media [Dulbecco's modified Eagle's medium containing 20 mM 4-(2-hydroxyethyl)-1-piperazineethanesulfonic acid] for 2 h at 37° C. Tumor cells were released from tissue culture flasks with 37° C. PBS containing 10 mM EDTA and washed several times with adhesion media. Cells were labeled overnight with 1 μCi/mL [^3 H]thymidine (New England Nuclear, Boston, Mass.) for adhesion assays. Cells were added to the plate wells at a density of 50,000 cells/mL in a total volume of 100 μL and adhered for 1 h at 37° C. For adhesion assays wells were washed several times with adhesion media and remaining cells lysed and radioactivity determined as described [M. K. Chelberg et al., J. Cell Biol. 111, 261 (1990)]. For spreading assays wells were fixed and stained using DiffQuik reagents (Baxter) and photographed with a Nikon MF-15 camera mounted on a Nikon Diaphot inverted microscope at 200× magnification. Cell spreading was quantitated by an Optomax System IV image analyzer equipped with a Hitachi Monitor. The efficiency of peptide adsorption to the Immulon plates was determined as described [M. K. Chelberg et al., J. Cell Biol. 111, 261 (1990)] using ^3 H- or ^125 I-labeled peptide.

K1735M4 tumor cell [3] = assay: Melanoma cell spreading on peptide-coated plates; type: cell-based, mouse; conditions: for cell areas averaged (cell spreading): [THP-2]=0.9 μM, [SSP]=2.1 μM, [GPP*]=1.4 μM
Protocol: as §1

Row | Substance | Tm (triple-helical melt) [1] [°C] | midpoint of low temperature transition (aggregation) ([1]; 5% aqueous HOAc, pH 2.4, shown by SEC to be aggregation) [°C] | increase in melanoma cell adhesion activity compared with the α1(IV) 1263-1277 sequence alone (K1735M4 tumor cell [2]; THP-2 versus SSP) [fold] | EC50 (K1735M4 tumor cell [2]) [nM] | Cell spreading, comparison in words (K1735M4 tumor cell [3]; THP-2 versus SSP and GPP*) | cell areas averaged (cell spreading) (K1735M4 tumor cell [3]) [mm^2 /μM peptide]
1 | (Gly-Pro-Hyp)3 -Gly-Val-Lys-Gly-Asp-Lys-Gly-Asn-Pro-Gly-Trp-Pro-Gly-Ala-Pro [THP-4] | 35.0 |  |  |  |  | 
2 | (Gly-Pro-Hyp)8 -Gly-Glu-Phe-Tyr-Phe-Asp-Leu-Arg-Leu-Lys-Gly-Asp-Lys [THP-1] | 53.0 |  |  |  |  | 
3 | (Gly-Pro-Hyp)8 -Gly-Val-Lys-Gly-Asp-Lys-Gly-Asn-Pro-Gly-Trp-Pro-Gly-Ala-Pro [THP-2] | 58.5 | 23.5 | 100 | 1120 | more extensive | 0.048
4 | (Gly-Pro-Hyp)8 [THP-3] | 42.5 |  |  | > 100000 |  | 0.017
